In PubChem BioAssay (NCI):
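Test compounds were applied to cells in 96-well plates for 48 hours at 5 doses. TGI: concentration producing complete growth inhibition.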

Tests used:
Assay in all cases: NCI tumour cell line growth inhibition, 48 h
MDA-MB-435 = tested on: MDA-MB-435
NCI-H460 lung = tested on: NCI-H460 lung
PC-3 prostate = tested on: PC-3 prostate
ACHN renal = tested on: ACHN renal
NCI/ADR-RES ovarian = tested on: NCI/ADR-RES ovarian
786-0 renal = tested on: 786-0 renal
KM12 colon = tested on: KM12 colon
M14 melanoma = tested on: M14 melanoma
CAKI-1 renal = tested on: CAKI-1 renal
SNB-19 CNS = tested on: SNB-19 CNS
TK-10 renal = tested on: TK-10 renal
MALME-3M melanoma = tested on: MALME-3M melanoma
RPMI-8226 leukemia = tested on: RPMI-8226 leukemia
SF-539 CNS = tested on: SF-539 CNS
EKVX NSCLC = tested on: EKVX NSCLC
RXF 393 renal = tested on: RXF 393 renal
SN12C renal = tested on: SN12C renal
CCRF-CEM leukemia = tested on: CCRF-CEM leukemia
HS 578T breast = tested on: HS 578T breast
DU-145 prostate = tested on: DU-145 prostate
SK-MEL-5 melanoma = tested on: SK-MEL-5 melanoma
A549 NSCLC = tested on: A549 NSCLC
K-562 leukemia = tested on: K-562 leukemia
HT29 colon = tested on: HT29 colon
SK-OV-3 ovarian = tested on: SK-OV-3 ovarian
MDA-MB-231 breast = tested on: MDA-MB-231 breast
COLO 205 colon = tested on: COLO 205 colon
OVCAR-5 ovarian = tested on: OVCAR-5 ovarian
BT-549 breast = tested on: BT-549 breast
SW-620 colon = tested on: SW-620 colon
IGROV1 ovarian = tested on: IGROV1 ovarian
UO-31 renal = tested on: UO-31 renal
OVCAR-3 ovarian = tested on: OVCAR-3 ovarian
U251 CNS = tested on: U251 CNS
UACC-62 melanoma = tested on: UACC-62 melanoma
SK-MEL-2 melanoma = tested on: SK-MEL-2 melanoma
LOX IMVI melanoma = tested on: LOX IMVI melanoma
UACC-257 melanoma = tested on: UACC-257 melanoma
HCT-116 colon = tested on: HCT-116 colon
OVCAR-8 ovarian = tested on: OVCAR-8 ovarian
SK-MEL-28 melanoma = tested on: SK-MEL-28 melanoma
MOLT-4 leukemia = tested on: MOLT-4 leukemia
A498 renal = tested on: A498 renal
HOP-92 NSCLC = tested on: HOP-92 NSCLC
SF-268 CNS = tested on: SF-268 CNS
HOP-62 NSCLC = tested on: HOP-62 NSCLC
NCI-H226 lung = tested on: NCI-H226 lung
MDA-N = tested on: MDA-N
NCI-H522 lung = tested on: NCI-H522 lung
NCI-H23 lung = tested on: NCI-H23 lung
SF-295 CNS = tested on: SF-295 CNS
OVCAR-4 ovarian = tested on: OVCAR-4 ovarian
T-47D breast = tested on: T-47D breast
HL-60(TB) leukemia = tested on: HL-60(TB) leukemia
SR leukemia = tested on: SR leukemia
HCT-15 colon = tested on: HCT-15 colon

In the case of C[C@H](NC1=CC(=O)C(N[C@@H](C)[C@H](O)c2ccccc2)=CC1=O)[C@H](O)c1ccccc1, the TGI (MDA-MB-435) is reported as > 100 µM, the TGI (NCI-H460 lung) is reported as > 100 µM and the TGI (PC-3 prostate) is reported as > 100 µM. For the same compound, the TGI (ACHN renal) was > 100 µM, the TGI (NCI/ADR-RES ovarian) was > 100 µM and the TGI (786-0 renal) was > 100 µM. For the same compound, the TGI (KM12 colon) was > 100 µM, the TGI (M14 melanoma) was > 100 µM and the TGI (CAKI-1 renal) was > 100 µM. The TGI (SNB-19 CNS) was > 100 µM, the TGI (TK-10 renal) was > 100 µM and the TGI (MALME-3M melanoma) was > 100 µM. The TGI (RPMI-8226 leukemia) was > 100 µM, the TGI (SF-539 CNS) was > 100 µM and the TGI (EKVX NSCLC) was > 100 µM. For the same compound, the TGI (RXF 393 renal) was > 100 µM, the TGI (SN12C renal) was > 100 µM and the TGI (CCRF-CEM leukemia) was > 100 µM. For the same compound, the TGI (HS 578T breast) was > 100 µM, the TGI (DU-145 prostate) was > 100 µM and the TGI (SK-MEL-5 melanoma) was > 100 µM. The TGI (A549 NSCLC) was > 100 µM, the TGI (K-562 leukemia) was > 100 µM and the TGI (HT29 colon) was 63.7 µM. The TGI (SK-OV-3 ovarian) was > 100 µM, the TGI (MDA-MB-231 breast) was > 100 µM and the TGI (COLO 205 colon) was > 100 µM. The TGI (OVCAR-5 ovarian) was > 100 µM, the TGI (BT-549 breast) was > 100 µM and the TGI (SW-620 colon) was > 100 µM. The TGI (IGROV1 ovarian) was > 100 µM, the TGI (UO-31 renal) was > 100 µM and the TGI (OVCAR-3 ovarian) was > 100 µM. The TGI (U251 CNS) was > 100 µM, the TGI (UACC-62 melanoma) was > 100 µM and the TGI (SK-MEL-2 melanoma) was > 100 µM. For the same compound, the TGI (LOX IMVI melanoma) was > 100 µM, the TGI (UACC-257 melanoma) was > 100 µM and the TGI (HCT-116 colon) was > 100 µM. The TGI (OVCAR-8 ovarian) was > 100 µM, the TGI (SK-MEL-28 melanoma) was > 100 µM and the TGI (MOLT-4 leukemia) was > 100 µM. The TGI (A498 renal) was > 100 µM, the TGI (HOP-92 NSCLC) was > 100 µM and the TGI (SF-268 CNS) was > 100 µM. For the same compound, the TGI (HOP-62 NSCLC) was > 100 µM, the TGI (NCI-H226 lung) was > 100 µM and the TGI (MDA-N) was > 100 µM. The TGI (NCI-H522 lung) was > 100 µM, the TGI (NCI-H23 lung) was > 100 µM and the TGI (SF-295 CNS) was > 100 µM. The TGI (OVCAR-4 ovarian) was > 100 µM, the TGI (T-47D breast) was > 100 µM and the TGI (HL-60(TB) leukemia) was > 100 µM. The TGI (SR leukemia) was > 100 µM and the TGI (HCT-15 colon) was > 100 µM.
